Assay results taken from patent publication US4071627A, “2-Oximino-tetrahydro-1,4-thiazin-5-one compounds and pesticidal carbamate derivatives” (priority 1976, dated 1978).

Assays:
[1] = system: two-spotted mite (Tetranychus urticae Koch); test: Mite Foliage Spray Test; format: in vivo; design: key: A: excellent control; B: partial control; C: no control; details: 500 ppm, six days, adults and nymphs
Experimental: (§1) Suspensions of the test compounds were prepared by dissolving one gram of compound in 50 milliliters of acetone in which had been dissolved 0.1 gram (10 percent of the weight of compound) of an alkylphenoxy polyethoxyethanol surfactant, as an emulsifying or dispersing agent. The resulting solution was mixed into 150 milliliters of water to give roughly 200 milliliters of a suspension containing the compound in finely divided form. The thus-prepared stock suspension contained 0.5 percent by weight of test compound. The test concentrations in parts per million by weight employed in the tests described hereinbelow were obtained by appropriate dilutions of the stock suspension with water. The test procedures were as follows:
Adults and nymphal stages of the two-spotted mite (Tetranychus urticae Koch), reared on Tengergreen bean plants at 80±5 percent relative humidity, were the test organisms. Infested leaves from a stock culture were placed on the primary leaves of two bean plants 6 to 8 inches in height, growing in a 21/2 inch clay pot. 150-200 Mites, a sufficient number for testing, transferred from the excised leaves to the fresh plants in a period of 24 hours. Following the 24 hour transfer period, the excised leaves were removed from the infested plants. The test compounds were formulated by diluting the stock suspension with water to give a suspension containing 500 parts of test compound per million parts of final formulation. The potted plants (one pot per compound) were placed on a revolving turntable and sprayed with 100-110 milliliters of test compound formulation by use of a DeVilbiss spray gun set at 40 psig. air pressure. This application, which lasted 25 seconds, was sufficient to wet the plants to run-off. As a control, 100-110 milliliters of a water solution containing acetone and emulsifier in the same concentrations as the test compound formulation, but containing no test compound, were also sprayed on infested plants. The sprayed plants were held at 80±5 percent relative humidity for six days, after which a mortality count of motile forms was made. Microscopic examination for motile forms was made on the leaves of the test plants. Any individual which was capable of locomotion upon prodding was considering living.
(§2) In these tests the pesticidal activity of the compounds against aphid, mite, Southern Armyworm, Mexican Bean Beetle, and house fly was rated as follows: […]

[2] = system: Mexican bean beetle (Epilachna varivestis, Muls.); test: Mexican Bean Beetle Leaf Spray Test; format: in vivo; design: key: A: excellent control; B: partial control; C: no control; details: 500 ppm, three days, fourth instar larvae
Experimental: as §1
Fourth instar larvae of the Mexican bean beetle (Epilachna varivestis, Muls.), reared on Tendergreen bean plants at a temperature of 80°±5° F. and 50±5 percent relative humidity, were the test insects.
The test compounds were formulated by diluting the stock suspension with water to give a suspension containing 500 parts of test compound per million parts of final formation. Potted Tendergreen bean plants of standard height and age were placed on a revolving turntable and sprayed with 100-110 milliliters of test compound formulated by use of a DeVilbiss spray gun set at 10 psig air pressure. This application, which lasted 25 seconds, was sufficient to wet plants to run-off. As a control, 100-110 milliliters of a water-acetone-emulsifier solution containing no test compound were also sprayed on infested plants. When dry, the paired leaves were separated and each was placed in a 9 centimeter Petri dish lined with moistened filter paper. Five randomly selected larvae were introduced into each dish, and the dishes were closed. The closed dishes were labeled and held at a temperature of 80°±5° F. for three days. Although the larvae could easily consume the leaf within 24 to 48 hours, no more food was added. Larvae which were unable to move the length of the body, even upon stimulation, were considered dead.
as §2

[3] = system: southern armyworm (Prodenia eridania, (Cram.)); test: Southern Armyworm Leaf Spray Test; format: in vivo; design: key: A: excellent control; B: partial control; C: no control; details: 500 ppm, three days, larvae
Experimental: as §1
Larvae of the southern armyworm (Prodenia eridania, (Cram.)), reared on Tendergreen bean plants at a temperature of 80°±5° F. and a relative humidity of 50±5 percent, constituted the test insects.
The test compounds were formulated by diluting the stock suspension with water to give a suspension containing 500 parts of test compound per million parts of final formulation. Potted Tendergreen bean plants of standard height and age were placed on a revolving turntable and sprayed with 100-110 milliliters of test compound formulation by use of a DeVilbiss spray gun set at 10 psig air pressure. This application, which lasted 25 seconds, was sufficient to wet plants to run-off. As a control, 100-110 milliliters of a water-acetone-emulsifier solution containing no test compound were also sprayed on infested plants. When dry, the paired leaves were separated and each one was placed in a 9 centimeter Petri dish lined with moistened filter paper. Five randomly selected larvae were introduced into each dish and the dishes were closed. The closed dishes were labeled and held at 80°-85° F. for three days. Although the larvae cound easily consume the whole leaf within 24 hours, no more food was added. Larvae which were unable to move the length of the body, even upon stimulation by prodding, were considered dead. Percent mortality was […] for various concentration levels.
as §2

[4] = system: bean aphid (Aphis fabae Scop.); test: Bean Aphid Foliage Spray Test; format: in vivo; design: key: A: excellent control; B: partial control; C: no control; details: 500 ppm, 24 hours, adults and nymphs
Experimental: as §1
Adults and nymphal stages of the bean aphid (Aphis fabae Scop.) reared on potted dwarf nasturtium plants at 65°-70° F. and 50-70 percent relative humidity, constituted the test insects. For testing purposes, the number of aphids per pot was standardized to 100-150 by trimming plants containing excess aphids.
The test compounds were formulated by diluting the stock suspension with water to give a suspension containing 500 parts of test compound per million parts of final formulation.
The potted plants (one pot per compound tested) infested with 100-150 aphids, were placed on a revolving turntable and sprayed with 100-110 milliliters of test compound formulated by use of a DeVilbiss spray gun set at 40 psig. air pressure. This application, which lasted 25 seconds, was sufficient to wet the plants to run-off. As a control, 100-110 milliliters of a water-acetone-emulsifier solution containing no test compound were also sprayed on infested plants. After spraying, the pots were placed on their sides on a sheet of white standard mimeograph paper which had been previously ruled to facilitate counting. Temperature and humidity in the test room during the 24 hour holding period were 65°-70° F. and 50-70 percent, respectively. Aphids which fell onto the paper and were unable to remain standing after being uprighted were considered dead. Aphids remaining on the plants were observed closely for movement and those which were unable to move the length of the body upon stimulation by prodding were considered dead. Percent mortality was recorded for various concentration levels.
as §2

[5] = in vivo; details: rat, po
Experimental: Certain of these compositions were also evaluated to determine their peroral toxicity to mammals. The animal selected for this experiment was the rat.

[6] = system: house flies (Musca domestica, L.); test: Fly Bait Test; format: in vivo; design: key: A: excellent control; B: partial control; C: no control; details: 500 ppm, 24 hours, adults
Experimental: as §1
Four to six day old adult house flies (Musca domestica, L.), reared according to the specifications of the Chemical Specialities Manufacturing Association (Blue Book, McNair-Dorland Co., N.Y. 1954; pages 243-244, 261) under controlled conditions of 80°±5° F. and 50±5 percent relative humidity, were the test insects. The flies were immobilized by anesthetizing with carbon dioxide and 25 immobilized individuals, males and females, were transferred to a cage consisting of a standard food strainer about 5 inches in diameter which was inverted over a wrapping-paper-covered surface. The test compounds were formulated by diluting the stock suspension with a 10 percent (by weight) sugar solution to give a suspension containing 500 parts of test compound per million parts of final formulation, by weight. Ten milliliters of the test formulation were added to a souffle cup containing a 1-inch square of an absorbent cotton pad. This bait cup was introduced and centered on the blotting paper under the food strainer prior to admitting the anesthetized flies. The caged flies were allowed to feed on the bait for 24 hours, at a temperature of 80°±5° F. and the relative humidity of 50±5 percent.
as §2

Structure (SMILES) | Biological Activity, Mite [1] | Biological Activity, Mexican Bean Beetle [2] | Biological Activity, Southern Armyworm [3] | Biological Activity, Aphid [4] | LD50 [5] [mg/kg] | Biological Activity, House Fly [6]
CNC(=O)ON=C1SC(C)C(=O)NC1(C)C (stereo not drawn) [2-[O-(Methylcarbamoyl)oximino]-3,3,6-trimethyltetrahydro-1,4-thiazin-5-one] | A | A | B | A | 0.884 | A
CNC(=O)ON=C1SCC(=O)NC1C (stereo not drawn) [2-[O-(Methylcarbamoyl)oximino]-3-methyltetrahydro-1,4-thiazin-5-one] | A | A | A | B | 5.66 | A
CC1C(=NOC(=O)N(C)SC(Cl)(Cl)Cl)SCC(=O)N1C (stereo not drawn) [2-[O-(N-Trichloromethanesulfenyl-N-methylcarbamoyl)oximino]-3,4-dimethyltetrahydro-1,4-thiazin-5-one] | A | A | B | B | 3.54 | A
